In patent US12234216B2, “Isotopologues salts, crystalline forms, stereoisomers, of methylone and ethylone and methods of use thereof” (Terran Biosciences Inc., priority 2021, dated 2025):
Where a name gives a salt, the structure may show the parent alone.

System: participants diagnosed with at least moderate post-traumatic stress disorder (PTSD)
Test: Double-blind, randomized, placebo-controlled clinical trial of methylone-assisted psychotherapy in PTSD
Format: in vivo, human
Protocol: A multicenter, randomized, double-blind, placebo-controlled trial is conducted to assess the efficacy and safety of methylone-assisted psychotherapy versus psychotherapy with placebo control in participants diagnosed with at least moderate post-traumatic stress disorder (PTSD).
This multicenter, randomized, double-blind, placebo-controlled trial is conducted at various sites in the United States with IRB approval from each study site. A flexible dose of methylone hydrochloride salt or placebo, followed by a supplemental half-dose unless contraindicated by patient's previous response or medical history, is also administered during the Treatment Period with psychotherapy in at least 3 blinded monthly Experimental Sessions. The Supplemental Dose extends the duration of drug effects on the participants during an Experimental Session. Methylone test groups are further subdivided into specific groups receiving only racemic methylone hydrochloride salt, S-methylone hydrochloride salt, or R-methylone hydrochloride salt. An optional Risk Evaluation and Mitigation Strategy (REMS) Protocol may be implemented for the racemic methylone, S-methylone, and placebo-groups. The Treatment Period lasts for approximately 12 weeks. During the Treatment Period, each Experimental Session is followed by three Intervening Sessions of non-drug psychotherapy. Each Experimental Session involves an overnight stay. The Primary Outcome measure, the change in Clinician Administered PTSD Scale for DSM-5 (CAPS-5), is determined by a blinded Independent Rater (IR) pool multiple times throughout the study. The study consists of separate periods for each participant. Initially, prospective participants undergo a Screening Period involving an initial eligibility assessment, a medical history intake, informed consent, and enrollment of eligible participants. Next, a Preparation Period is undertaken for enrolled participants involving medication tapering and clinical baseline assessments to confirm each participant meets enrollment criteria. As part of the Preparation Period, a detailed assessment of co-morbidities to PTSD is recorded. Participants may remain on prescribed courses of selective serotonin reuptake inhibitor (SSRI) or serotonin and norepinephrine reuptake inhibitor (SNRI) treatment. Dosages and/or frequency of administration of a prescribed SSRI or SNRI may be adjusted to fit within study parameters. Participants may be required to taper a prescribed course of medication in order to maintain eligibility within the study. The Treatment Period consists of three monthly Experimental Sessions and associated Intervening Sessions of integrative behavioral psychotherapy. The Treatment Period lasts approximately 12 weeks. Following the Treatment Period is a Follow-up Period and Study Conclusion. During the Follow-up Period and Study Conclusion, participants complete 4 weeks with no study visits, followed by a Study Conclusion visit.
This study compares the effects of three blinded Experimental Sessions of psychotherapy in combination with flexible doses of methylone or placebo administered as described below. Non-drug preparatory and intervening psychotherapy sessions are also included. Patient's weight is determined for dosage calculation. Initial dose is 100 mg unless this will result in a dosage of less than 1.5 mg/kg of patient weight. Initial dose thereby adjusted upward in 25 mg increments to deliver the lowest dose possible of at least 1.5 mg/kg of patient weight. Initial dose for Experimental Session 2 and 3 is cumulative dose calculated by adding the initial dose plus REMS protocol dose used the previous Experimental Session for each patient.
Randomization occurs prior to the initiation of Experimental Session 1. Each participant is provided the next randomized number in a sequence by a blinded study monitor. […]

[1] = Study Conclusion, vs placebo-treated controls

## CNC(C)C(=O)c1ccc2c(c1)OCO2 (racemic) [(rac)-Methylone Hydrochloride, 3,4-methylenedioxy-N-methylcathinone hydrochloride]
Intervening Session 1C, 2C, 3C and Study Conclusion
  CAPS-5 assessments compared to placebo-treated controls: Significant improvements in CAPS-5 assessments
Study Conclusion
  daytime sleepiness as measured by ESS: significant improvement in lessening daytime sleepiness
[1]
  clinician-rated functional impairment score as measured by SDS: significant improvement in clinician-rated functional impairment score
  depression as measured by HAM-D: significant improvement depression
Study Conclusion, 100-200 mg p.o. initial dose, 3 Experimental Sessions with psychotherapy
  change in CAPS-5 assessment compared to the placebo group: significant mean reduction in CAPS-5 assessment
